According to patent publication US11952349B2, “Anti-cancer nuclear hormone receptor-targeting compounds” (Nuvation Bio Inc., priority 2019, dated 2024):
pIC50: −log10 of the molar value.

Assays:
T47D cells = assay: Cell viability assay (CellTiterGlo, 6 days) T47D; assay type: cell-based; details: Homo sapiens, 144 h, Table 8
Description: Cell viability assay: LNCap, 22Rv1, and T47D cells were seeded at a density of 1500-2000 cells/well in 96 well plates, and a ‘T0’ (timepoint 0) was included along with the assay plate. The plates were then incubated at 37° C., 5% CO2 in a cell culture incubator overnight. On the next day, the ‘T0’ plate was assayed using CellTiterGlo (Promega, Inc) according to the manufacturer's instructions. The appropriate compounds were diluted in DMSO and added to the assay plate (final DMSO concentration of 0.2%) on the next day. The assay plates were incubated for 6 days at 37° C., 5% CO2. After the incubation period, the plates were assayed using CellTiterGlo (Promega, Inc) according to the manufacturer's instructions and luminescence was read on the EnVision plate reader. Inhibition the tested compounds was determined by the following formula: Inhibition rate (%)=(1−(RLU compound−RLU day0)/(RLU control−RLU day0))*100%. GraphPadPrism was used to analyze the data and determine absolute IC50 values.

[1] = biological target: T1, GR, cytosol from IM-9 cells (Homo sapiens, UniProt P04150); assay: GR binding assay, 3H-Dexamethasone; details: Table 8; 3H-Dexamethasone 1.5 nM
T1 construct: endogenous in cells; host or cells: IM-9 cells (cytosol)
T1 sequence (P04150 1-777): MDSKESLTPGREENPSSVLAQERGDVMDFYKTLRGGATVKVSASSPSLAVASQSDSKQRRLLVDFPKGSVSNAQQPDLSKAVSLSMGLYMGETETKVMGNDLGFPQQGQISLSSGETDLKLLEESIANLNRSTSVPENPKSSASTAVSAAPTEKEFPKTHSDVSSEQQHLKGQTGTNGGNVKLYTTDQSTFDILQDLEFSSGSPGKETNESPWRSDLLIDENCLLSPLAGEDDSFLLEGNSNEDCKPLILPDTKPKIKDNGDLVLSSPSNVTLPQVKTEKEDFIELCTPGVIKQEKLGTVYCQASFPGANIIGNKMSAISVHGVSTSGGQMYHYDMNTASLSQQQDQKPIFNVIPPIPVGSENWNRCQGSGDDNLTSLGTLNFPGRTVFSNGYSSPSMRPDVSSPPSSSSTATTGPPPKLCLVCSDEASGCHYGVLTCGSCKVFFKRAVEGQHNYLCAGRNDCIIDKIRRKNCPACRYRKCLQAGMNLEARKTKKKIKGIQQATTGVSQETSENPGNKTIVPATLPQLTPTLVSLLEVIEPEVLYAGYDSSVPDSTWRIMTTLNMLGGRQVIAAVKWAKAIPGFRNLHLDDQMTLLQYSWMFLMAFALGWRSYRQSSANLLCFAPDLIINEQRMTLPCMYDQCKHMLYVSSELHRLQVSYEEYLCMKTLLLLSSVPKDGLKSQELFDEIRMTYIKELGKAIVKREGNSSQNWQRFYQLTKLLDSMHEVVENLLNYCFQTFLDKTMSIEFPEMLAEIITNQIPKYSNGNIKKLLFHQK
Description: GR binding assay: To assess GR binding, test compound (top dose 1 μM, 4 fold serial dilution, 8 point dose response) and control (dexamethasone) were transferred to the assay plate. Cytosol from IM-9 cells was added to the plate, followed by addition of radiolabeled ^3H-Dexamethasone at a final concentration of 1.5 nM. The plate was sealed, and the reaction was incubated at 300 rpm at 4° C. for 24 hrs. Radioligand absorption buffer (10 mM Tris-HCl, pH 7.4; 1.5 mM EDTA; 1 mM DTT; 0.25% charcoal; 0.0025% dextran) was then added to the plate, mixed, and incubated at 4° C. for 15 minutes. The plate was then centrifuged at […] for 30 minutes at 4° C. The supernatant was transferred to the scint-tube and Tri-carb was used for scintillation counting. The data was analyzed using GraphPadPrism v5.0 and binding IC50 was determined as the concentration where 50% inhibition of radioligand binding was observed.

[2] = biological target: T2, Progesterone PR-B receptors from human breast carcinoma T47D cells (Homo sapiens, UniProt P06401); assay: PR binding assay, [3H]Progesterone; details: Table 8; 0.5 nM [3H]Progesterone
T2 construct: endogenous in cells; host or cells: T47D human breast carcinoma cells (cell supernatant)
T2 sequence (P06401 1-933): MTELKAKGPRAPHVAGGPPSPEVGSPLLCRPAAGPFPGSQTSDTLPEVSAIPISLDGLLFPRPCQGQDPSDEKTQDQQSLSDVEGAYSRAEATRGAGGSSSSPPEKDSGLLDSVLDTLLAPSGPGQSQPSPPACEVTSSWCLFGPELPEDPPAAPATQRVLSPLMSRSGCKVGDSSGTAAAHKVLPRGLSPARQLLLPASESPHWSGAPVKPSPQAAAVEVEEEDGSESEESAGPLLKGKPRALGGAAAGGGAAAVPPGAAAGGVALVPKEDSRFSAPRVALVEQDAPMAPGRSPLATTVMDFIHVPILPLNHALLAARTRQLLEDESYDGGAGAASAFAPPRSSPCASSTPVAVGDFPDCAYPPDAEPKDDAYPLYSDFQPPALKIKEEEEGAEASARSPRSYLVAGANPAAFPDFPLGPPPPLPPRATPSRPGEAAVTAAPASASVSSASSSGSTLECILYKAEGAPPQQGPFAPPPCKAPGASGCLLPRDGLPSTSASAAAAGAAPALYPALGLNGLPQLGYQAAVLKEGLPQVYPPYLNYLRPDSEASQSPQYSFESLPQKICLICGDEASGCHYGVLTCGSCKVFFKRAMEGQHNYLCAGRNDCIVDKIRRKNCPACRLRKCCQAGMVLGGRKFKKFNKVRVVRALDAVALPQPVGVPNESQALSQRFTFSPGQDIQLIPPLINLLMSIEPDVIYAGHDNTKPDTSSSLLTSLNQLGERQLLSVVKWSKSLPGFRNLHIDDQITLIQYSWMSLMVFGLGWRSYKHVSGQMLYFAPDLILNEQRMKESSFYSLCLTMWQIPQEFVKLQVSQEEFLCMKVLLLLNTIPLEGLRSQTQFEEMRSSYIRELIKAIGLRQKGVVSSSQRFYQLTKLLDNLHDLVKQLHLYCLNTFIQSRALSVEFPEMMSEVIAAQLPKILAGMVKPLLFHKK
Description: PR binding assay: Progesterone PR-B receptors from human breast carcinoma T47D cells are used in modified Na2HPO4/NaH2PO4 buffer pH 7.4. Compounds were screened at a range of doses (Top dose 40 nM, 4 fold serial dilution, 8 point dose response) and were dispensed into the assay plate. Supernatant of 1.2×10^5 cells aliquot was added to the assay plate and was incubated with 0.5 nM [^3H]Progesterone for 20 hours at 4° C. Membranes are filtered and washed, the filters are then counted to determine [^3H]Progesterone specifically bound. Binding IC50 was determined as the concentration where 50% inhibition of radioligand binding was observed.

Row | pIC50 (T47D cells) | pIC50 [1] | pIC50 [2] | Compound
1 | 6.00 to 7.00 | > 8.00 | > 8.00 | CC(=O)O[C@]1(C(C)=O)CC[C@H]2[C@@H]3CCC4=CC(=O)CCC4=C3[C@@H](c3ccc(N(C)CCCCCC(=O)N4CCN(C(=O)c5cc(Cc6n[nH]c(=O)c7ccccc67)ccc5F)CC4)cc3)C[C@@]21C [Compound 1378, (8S,11R,13S,14S,17R)-17-acetyl-11-(4-((6-(4-(2-fluoro-5-((4-oxo-3,4-dihydrophthalazin-1-yl)methyl)benzoyl)piperazin-1-yl)-6-oxohexyl)(methyl)amino)phenyl)-13-methyl-3-oxo-2,3,6,7,8,11,12,13,14,15,16,17-dodecahydro-1H-cyclopenta[a]phenanthren-17-yl acetate]
2 | 5.00 to 6.00 | > 8.00 | > 8.00 | CC(=O)O[C@]1(C(C)=O)CC[C@H]2[C@@H]3CCC4=CC(=O)CCC4=C3[C@@H](c3ccc(N(C)CCCCCC(=O)NCCOCCOCC(=O)N4CCN(C(=O)c5cc(Cc6n[nH]c(=O)c7ccccc67)ccc5F)CC4)cc3)C[C@@]21C [Compound 1384, (8S,11R,13S,14S,17R)-17-acetyl-11-(4-((6-(2-(2-(2-(4-(2-fluoro-5-((4-oxo-3,4-dihydrophthalazin-1-yl)methyl)benzoyl)piperazin-1-yl)-2-oxoethoxy)ethoxy)ethylamino)-6-oxohexyl)(methyl)amino)phenyl)-13-methyl-3-oxo-2,3,6,7,8,11,12,13,14,15,16,17-dodecahydro-1H-cyclopenta[a]phenanthren-17-yl acetate]

Further lines, the molecule ahead of its results:

Row | Compound | pIC50 (T47D cells) | pIC50 [1] | pIC50 [2]
3 | CC#C[C@]1(O)CC[C@H]2[C@@H]3CCC4=CC(=O)CCC4=C3[C@@H](c3ccc(N(C)CCCCCC(=O)N4CCN(C(=O)c5cc(Cc6n[nH]c(=O)c7ccccc67)ccc5F)CC4)cc3)C[C@@]21C [Compound 135, 4-(4-fluoro-3-(4-(6-((4-((8S,11R,13S,14S,17S)-17-hydroxy-13-methyl-3-oxo-17-(prop-1-ynyl)-2,3,6,7,8,11,12,13,14,15,16,17-dodecahydro-1H-cyclopenta[a]phenanthren-11-yl)phenyl)(methyl)amino)hexanoyl)piperazine-1-carbonyl)benzyl)phthalazin-1(2H)-one] | 6.00 to 7.00 | > 8.00 | > 8.00
4 | C[C@]12CC[C@H]3[C@@H](CCC4=CC(=O)CC[C@@]43C)[C@@H]1CC[C@@H]2C(=O)COCCCCCC(=O)N1CCN(C(=O)c2cc(Cc3n[nH]c(=O)c4ccccc34)ccc2F)CC1 [Compound 1386, 4-(3-(4-(6-(2-((8S,9S,10R,13S,14S,17S)-10,13-dimethyl-3-oxo-2,3,6,7,8,9,10,11,12,13,14,15,16,17-tetradecahydro-1H-cyclopenta[a]phenanthren-17-yl)-2-oxoethoxy)hexanoyl)piperazine-1-carbonyl)-4-fluorobenzyl)phthalazin-1(2H)-one] | 6.00 to 7.00 | 6.00 to 7.00 | 7.00 to 8.00
5 | CC#C[C@]1(O)CC[C@H]2[C@@H]3CCC4=CC(=O)CCC4=C3[C@@H](c3ccc(N(C)CCCCCC(=O)NCCOCCOCC(=O)N4CCN(C(=O)c5cc(Cc6n[nH]c(=O)c7ccccc67)ccc5F)CC4)cc3)C[C@@]21C [Compound 1429, N-(2-(2-(2-(4-(2-fluoro-5-((4-oxo-3,4-dihydrophthalazin-1-yl)methyl)benzoyl)piperazin-1-yl)-2-oxoethoxy)ethoxy)ethyl)-6-((4-((8S,11R,13S,14S,17S)-17-hydroxy-13-methyl-3-oxo-17-(prop-1-ynyl)-2,3,6,7,8,11,12,13,14,15,16,17-dodecahydro-1H-cyclopenta[a]phenanthren-11-yl)phenyl)(methyl)amino)hexanamide] | < 5.00 | > 8.00 | > 8.00
